{
  "source": "patent US12037350B2",
  "about": "“Compositions and methods for the prevention and/or treatment of mitochondrial disease, including Friedreich's ataxia” (Stealth BioTherapeutics Inc., priority 2020, dated 2024)",
  "key": {"[1]": {"system": "GM03665 cells (fibroblasts from a subject with Friedreich's ataxia)", "experiment": "RSL-3 Toxicity Assay (RSL-3 Assay)", "type": "cell-based, human", "excerpt": "Example 14: RSL-3 Toxicity Assay (RSL-3 Assay)\nThis assay has been adapted from: Hinman, A., Holst, C. R., Latham, J. C., Bruegger, J. J., Ulas, G., McCusker, K. P., Amagata, A., Davis, D., Hoff, K. G., Kahn-Kirby, A. H., Kim, V., Kosaka, Y., Lee, E., Malone, S. A., Mei, J. J., Richards, S. J., Rivera, V., Miller, G., Trimmer, J. K., Shrader, W. D., “Vitamin E hydroquinone is an endogenous regulator of ferroptosis via redox control of 15-lipoxygenase”, (2018) PLoS ONE 13(8): e0201369.\nIn brief, GM03665 cells (Coriell Institute) were seeded in 96-well plates (Sarstedt) in DMEM cell culture media containing 10% Fetal Bovine serum and 1% Penicillin-Streptomycin (Pen-Strep) antibiotic mix at the amount of 2×10^4/mL (100 μL or 2×10^3 cells per well). Cells were left to rest overnight at 37° C. in a humidified atmosphere with 5% CO2 to allow attachment of the cells to the culture plate. Test compounds were prepared as DMSO stocks (10 mM) and were serially diluted in cell culture media to obtain 2× working solutions. Cell media was discarded and replaced by 50 μL of test compound solutions or cell media with vehicle for control wells. Within 15 minutes, 2× working solution (4 μM) of 1S,3R-RSL-3 (CAS #1219810-16-8, Sigma-Aldrich) (diluted from 5 mM DMSO stock in cell culture media) was added. Final reaction volume was 100 μL and final DMSO concentration in reaction was kept below 0.2% (v/v) and equal in all wells. Final RSL-3 concentration was 2 μM and test compound final concentrations in reaction were up to 1000 nM. After 24 hours of incubation cell viability was assessed by MTT test. MTT (Sigma-Aldrich) solution 1 mg/mL in IX PBS (pH=7.4) was prepared 1 hour before the assay and filtered through Filtropur S 0.2 filters (Sarstedt). Cell media with test compounds was discarded and 100 μL of MTT solution was added to cells. The plates were incubated for 2 hours at +37° C. Thereafter, the MTT solution was removed and 100 μL of isopropanol was added to dissolve sediment. Absorption at 570 and 650 nm was measured using Hidex Sense microplate reader.\nCompounds A and B and idebenone were not examined in this assay. The data presented in Table 1 indicates omaveloxolone was not active in this assay but that vatiquinone was active.\nDiscussion—Both BSO and RSL-3 are frequently utilized to induce the regulated cell death pathway known as ferroptosis. Ferroptosis is thought to require the joint activity of iron catalyzed oxidative stress and lipid peroxidation and has been described in cell and animal models of multiple neurodegenerative diseases, including Friedreich's Ataxia, Huntington Disease, Parkinson Disease and Alzheimer's Disease. […] Of note, the results for Compounds C-I and K were favorable with respect to inhibition of ferroptotic cell death when either BSO or RSL3 were used as initiating stimulus, differentiating these compounds from omaveloxolone and idebenone."}, "HepG2 cells": {"system": "HepG2 cells", "experiment": "Rotenone Oxygraph Assay (high-resolution respirometry of intact HepG2 cells)", "type": "cell-based, human", "description": "Example 15: Rotenone Oxygraph Assay (High-Resolution Respirometry of Intact HepG2 Cells)\nThe Oxygraph-2k (O2k, OROBOROS INSTRUMENTS, Austria) was used for measurements of respiration of intact cells. The respirometry was performed in Dulbecco's Modified Eagle Medium (DMEM) high glucose without supplements. All experiments were performed at 37° C.\nHepG2 cells (ATCC collection code HB-8065™) were cultured in 10 cm^2 culture dishes in DMEM high glucose medium supplemented with 10% fetal bovine serum (FBS) and 100 units/mL penicillin and 100 μg/mL streptomycin until approximately 90% confluence was reached. Immediately prior to performing the respirometric assay, the cells were washed with media without FBS, trypsinized and resuspended in DMEM high glucose without FBS.\nThe final concentration of intact cells in the O2k-chamber was 0.5-10^6/mL. After stabilization of respiration, the Complex I inhibitor, rotenone, at 1 μM final concentration was added to inhibit electron flux via Complex I. Then, compound to be tested was added at 10 μM final concentration, and the change in respiration rate of intact cells was monitored. […]"}, "[2]": {"system": "HepG2 human hepatocarcinoma cells", "experiment": "Rotenone ATP Assay (Complex I by-pass assay)", "type": "cell-based", "description": "Example 13: Rotenone ATP Assay (a Complex I by-Pass Assay)\nThis assay has been adapted from Haefeli R H, Erb M, Gemperli A C, Robay D, Courdier Fruh I, et al. (2011) NQO1-Dependent Redox Cycling of Idebenone: Effects on Cellular Redox Potential and Energy Levels. PLoS ONE 6(3): e17963. HepG2 human hepatocarcinoma cells are co-incubated with the electron transport chain complex I toxin rotenone +/− compounds of interest and the corresponding effect on ATP synthesis is measured with a bioluminescent substrate.\nThe stock solutions of the test articles (See Table 1, below for a list of the test articles examined using this assay) were prepared in dimethyl sulfoxide (DMSO at 10 mM). Working stock solutions were prepared on the day of the experiment in glucose free, serum free Dulbecco's modified Eagles medium (DMEM) supplemented with 50 micromolar rotenone.\nIn brief, HepG2 cells were plated at 25,000 cells per well in low glucose (1 gram/Liter) DMEM medium+10% fetal calf serum and incubated for 24 hours. The following day, the media was decanted and subsequently replaced with glucose free/serum free DMEM which has been supplemented with 50 micromolar rotenone and compound of interest. Serial dilutions of compound were prepared in 3× dilutions beginning at 25 micromolar. The cells were incubated for 60 minutes in a humidified tissue culture incubator. Following incubation, ATP levels were quantified via bioluminescent assay (Promega […] Glo Assay kit) and readings were captured on a standard microplate reader.\nATP bioluminescence is plotted versus the log of compound of interest and data are used to generate EC50 values. Curve fitting is performed using a sigmoidal dose response curve fit function (GraphPad Prism software).\nEC50 values were derived from seven-point dose response curves performed on n=3 technical replicates per dose. Robustness of curve fit was assessed as a quality control measure, with an R squared value of at least 0.80 being required for a successful curve fit. Compounds of interest showing an increase in ATP bioluminescence relative to vehicle control were verified in an independent biological replicate of n=3 technical replicates per dose.\nThis assay is a direct measure of the ability of compounds of interest to restore ATP production under conditions of inhibition of Complex I of the mitochondrial electron transport chain. As the majority of ATP produced via the electron transport chain is thought to derive from Complex I activity, significant impairment in Complex I function has dire biological consequences. Of note, Complex I mutations are thought to drive pathophysiology in multiple mitochondrial diseases, including Leigh syndrome and Leber's Hereditary Optic Neuropathy (LHON), while diminished Complex I activity and the resultant attenuation of ATP production has been shown in neurodegenerative diseases, including Friedreich's Ataxia, Parkinson's Disease and Huntington's Disease. In brief, most compounds were tested in the Rotenone Oxygraph Assay instead of this assay but only Idebenone was active amongst Omaveloxolone, Idebenone and Vatiquinone."}, "[3]": {"system": "frataxin deficient fibroblasts (GM03665) from Friedreich's ataxia patient", "experiment": "Frataxin Deficient Fibroblast Viability Assay (BSO Assay)", "type": "cell-based", "description": "Example 12: Frataxin Deficient Fibroblast Viability Assay (the “BSO Assay”)\nThis Example was used to evaluate the various new compositions for their potential efficacy in the treatment of Friedreich's Ataxia (FA or FRDA)—substantially as described in the above cited Reference (Matthias et al.).\nThe stock solutions of the test articles (and control compounds) were prepared in dimethyl sulfoxide (DMSO at 10 mM), Working stock solutions (2 times concentrated) were prepared on the day of the experiment in respective cell culture medium to be used for assay (detailed medium description below). A listing of compounds used as test articles in this Example 12 are found in Table 1, below.\nA patient derived frataxin deficient fibroblast cell line was obtained from Coriell Institute. More specifically, the following cell lines/DNA samples were obtained from the NIGMS Human Genetic Cell Repository at the Coriell Institute for Medical Research: GM03665. To evaluate importance of various growth conditions on cell susceptibility to BSO toxicity cells were grown on:\nMEM (Sigma-Aldrich) 15% Fetal Bovine Serum (FBS) without growth factors;\nMEM (Sigma-Aldrich) 15% FBS with growth factors (Catalogue number 100-18B, Recombinant Human FGF-basic (154 a.a.) and catalogue number AF-100-15, Animal-Free Recombinant Human EGF from Peprotech);\nMEM199/MEM EBS (Bioconcept Ltd.) 10% FBS, insulin 10 μg/ml, L-glutamine 2 mM with growth factors (Catalogue number 100-18B, Recombinant Human FGF-basic (154 a.a.) and catalogue number AF-100-15, Animal-Free Recombinant Human EGF from Peprotech).\nTo conduct an experiment, fibroblast cells (from all growth conditions) were seeded (100 μL (cells 3×10^3/well) on 96-well plates in MEM199/MEM EBS medium 10% FBS, insulin 10 μg/mL, L-glutamine 2 mM with growth factors and allowed to grow on plate for 24 hrs. After 24 hrs., media was removed and then test compounds of interest were added (100 μL, 2 times concentrated stock) to 96-well plates (end DM80 concentration not exceeding 0.5%) and incubated for 24 hours. Then L-buthionine-sulfoximine (BSO, from Acros Organics, Cat. No. 235520010) was added (100 μL, 2 times concentrated stock) at end concentrations ranging from 1 to 10 mM. Both test compounds and BSO were dissolved in MEM199/MEM EBS medium 10% FBS, insulin 10 μg/mL, L-glutamine 2 mM with growth factors. Cell viability was monitored and either after 24- or 48-hours cell viability was assayed by MTT (Thiazolyl blue tetrazolium bromide) assay. For the MTT assay, media was removed and 100 μL of MTT 1 mg/mL was added, incubated for 2 hours at +37° C., then medium was removed and 100 μL of isopropanol added to dissolve sediment. Absorption was measured at 570 (OD570) and 650 (QD650) nm wavelengths. Control cells (vehicle instead of BSO and compound) and vehicle control (with BSO, but vehicle instead of test compound) were treated in the same manner as ceils with BSO and compound. All cell media contained penicillin and streptomycin 100 U/mL each.\nAbsorption readouts were processed as follows: ValueΔ=ValueOD570−ValueOD650 and the obtained values were used to calculate cell viability as % of control cell (i.e., no BSO, no compound, just vehicle) viability.\nExcept as otherwise indicated in Table 1, all samples were run in at least 3 replicates for test compounds and at least 8 replicates for controls (i.e., both control (no BSO, no compound) and vehicle control (i.e., with BSO, no compound). Exact N per data points are indicated in the figures/table legends. Results for the compounds (test articles and controls) tested are listed in Table 1, below.\nThis is a cell-based assay measuring cytotoxicity which results from oxidative stress subsequent to depletion of endogenous glutathione defense mechanisms. The cells were primary Friedreich Ataxia (FA) patient fibroblasts which were incubated for 48 hrs. in BSO, an inhibitor of gamma glutamyl synthetase, an enzyme required for glutathione production. […]"}},
  "note": "“Also recorded” adds a separate entry of the source.",
  "data": [
    {"compound": "CC(C)=CCC/C(C)=C/CC/C(C)=C/CC[C@@](C)(O)CCC1=C(C)C(=O)C(C)=C(C)C1=O", "note": "[Vatiquinone, reference compound]", "values": [
      {"measurement": "protection against RSL-3 toxicity (in words)", "setting": "[1]", "result": "active"},
      {"measurement": "EC50", "setting": "[1]; Homo sapiens, Fibroblast, GM03665 cells, RSL-3 2 μM, 24 hours, MTT", "result": 56, "unit": "nM"},
      {"measurement": "Complex I by-pass activity in Rotenone Oxygraph Assay (in words)", "setting": "HepG2 cells", "result": "inactive"},
      {"measurement": "Rotenone Oxygraph Assay % Increase", "setting": "HepG2 cells; intact HepG2 cells, rotenone 1 μM, compound 10 μM, increase in respiration rate", "result": "Inactive"},
      {"measurement": "Complex I by-pass activity in Rotenone ATP Assay (in words)", "setting": "[2]", "result": "inactive"},
      {"measurement": "ATP Rotenone Assay EC50", "setting": "[2]; HepG2, 50 micromolar rotenone, 60 minutes, ATP bioluminescence", "result": "Inactive"}
    ]},
    {"compound": "COC1=C(OC)C(=O)C(CCCCCCCCCCO)=C(C)C1=O", "note": "[Idebenone, reference compound]", "values": [
      {"measurement": "Complex I by-pass activity in Rotenone Oxygraph Assay (in words)", "setting": "HepG2 cells", "result": "active"},
      {"measurement": "activation at 10 µM", "setting": "HepG2 cells; Homo sapiens, intact HepG2 cells, rotenone 1 μM, compound 10 μM, increase in respiration rate", "result": 70.2, "unit": "%"},
      {"measurement": "protection against BSO induced cell death (in words)", "setting": "[3]; BSO Assay, text statement", "result": "not really very protective at all; also recorded: only very weakly active"},
      {"measurement": "EC50", "setting": "[3]; Homo sapiens, Fibroblast, FA patient fibroblasts pretreated with compound, BSO 10 mM, MTT after 48 hrs", "result": "> 1000", "unit": "nM"},
      {"measurement": "Complex I by-pass activity in Rotenone ATP Assay (in words)", "setting": "[2]", "result": "active"}
    ]}
  ]
}
